{"source": "ChEMBL document CHEMBL1145164", "about": "“2-Acetylamino-3-[4-(2-acetylamino-2-carboxyethylsulfanylcarbonylamino)- phenylcarbamoylsulfanyl]propionic acid and its derivatives as a novel class of glutathione reductase inhibitors” (J Med Chem, 2005)", "key": {"[1]": {"molecular_target": "T1, Glutathione S-transferase A1 (Homo sapiens) (UniProt P08263)", "T1 sequence (whole entry)": "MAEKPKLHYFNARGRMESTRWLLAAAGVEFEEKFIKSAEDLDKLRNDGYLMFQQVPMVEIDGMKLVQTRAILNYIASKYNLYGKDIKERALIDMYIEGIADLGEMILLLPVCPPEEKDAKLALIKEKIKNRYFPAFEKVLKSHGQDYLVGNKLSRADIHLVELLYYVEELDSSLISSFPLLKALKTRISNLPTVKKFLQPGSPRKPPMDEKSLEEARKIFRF", "test": "Inhibitory activity of compound against glutathione S-transferase", "conditions": "concentration not given here"}, "Glutathione reductase [2]": {"molecular_target": "T2, Glutathione reductase (Saccharomyces cerevisiae S288c, UniProt P41921)", "T2 sequence (P41921 whole entry)": "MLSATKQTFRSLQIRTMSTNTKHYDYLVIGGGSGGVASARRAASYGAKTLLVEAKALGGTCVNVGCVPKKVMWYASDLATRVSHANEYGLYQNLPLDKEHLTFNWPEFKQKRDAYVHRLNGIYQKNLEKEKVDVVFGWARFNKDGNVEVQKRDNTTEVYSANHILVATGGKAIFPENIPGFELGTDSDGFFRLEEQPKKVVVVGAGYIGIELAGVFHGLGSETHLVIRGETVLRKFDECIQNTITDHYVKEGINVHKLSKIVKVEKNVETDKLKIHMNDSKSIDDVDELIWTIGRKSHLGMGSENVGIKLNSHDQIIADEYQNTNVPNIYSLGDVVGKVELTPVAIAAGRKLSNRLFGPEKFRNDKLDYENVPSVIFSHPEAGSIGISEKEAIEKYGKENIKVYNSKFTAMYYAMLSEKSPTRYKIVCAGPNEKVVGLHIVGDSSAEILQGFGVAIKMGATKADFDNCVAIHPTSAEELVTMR", "test": "Inhibition of yeast glutathione reductase for 30 minutes pH 7.4 at 25 degree C at 0.2 mM"}, "Glutathione reductase [3]": {"molecular_target": "T2, Glutathione reductase", "test": "Inhibition of yeast glutathione reductase done for 30 minutes in pH 7.4 at 25 degree C with compound (0.2 mM)"}, "[4]": {"molecular_target": "T3, Glutathione reductase (Saccharomyces cerevisiae S288c) (UniProt P41921)", "T3 sequence (whole entry)": "T2 sequence (P41921 whole entry)", "description": "Kinact value for yeast glutathione reductase"}, "Glutathione reductase [5]": {"molecular_target": "T2, Glutathione reductase", "test": "Inhibition of yeast glutathione reductase over 30 minutes pH 7.4 at 25 degree C"}}, "data": [{"smiles": "CC(=O)NC(CSC(=O)Nc1ccc(NC(=O)SCC(NC(C)=O)C(=O)O)cc1)C(=O)O", "note": "(stereo unspecified)", "values": [{"measurement": "inhibition", "setting": "[1]", "result": 13, "unit": "%"}, {"measurement": "Ki", "setting": "Glutathione reductase [2]", "result": 88, "unit": "µM"}, {"measurement": "IC50", "setting": "Glutathione reductase [3]", "result": 50, "unit": "µM"}, {"measurement": "Kinact", "setting": "[4]", "result": 0.1, "unit": "min⁻¹"}]}, {"smiles": "CC(=O)NC(CSC(=O)NC1CCC(CC2CCC(NC(=O)SCC(NC(C)=O)C(=O)O)CC2)CC1)C(=O)O", "note": "(stereo unspecified)", "values": [{"measurement": "IC50", "setting": "Glutathione reductase [5]", "result": 477, "unit": "µM"}]}, {"smiles": "CC(=O)NC(CSC(=O)Nc1cccc(NC(=O)SCC(NC(C)=O)C(=O)O)c1)C(=O)O", "note": "(stereo unspecified)", "values": [{"measurement": "IC50", "setting": "Glutathione reductase [5]", "result": 149, "unit": "µM"}]}, {"smiles": "CC(=O)NC(CSC(=O)NCCCCNC(=O)SCC(NC(C)=O)C(=O)O)C(=O)O", "note": "(stereo unspecified)", "values": [{"measurement": "IC50", "setting": "Glutathione reductase [5]", "result": 515, "unit": "µM"}]}, {"smiles": "CC(=O)NC(CSC(=O)NCCCCCCNC(=O)SCC(NC(C)=O)C(=O)O)C(=O)O", "note": "(stereo unspecified)", "values": [{"measurement": "IC50", "setting": "Glutathione reductase [5]", "result": 455, "unit": "µM"}]}, {"smiles": "CC(=O)NC(CSC(=O)NCc1ccc(NC(=O)SCC(NC(C)=O)C(=O)O)cc1)C(=O)O", "note": "(stereo unspecified)", "values": [{"measurement": "IC50", "setting": "Glutathione reductase [5]", "result": 117, "unit": "µM"}]}, {"smiles": "CC(=O)NC(CSC(=O)Nc1ccc(Cc2ccc(NC(=O)SCC(NC(C)=O)C(=O)O)cc2)cc1)C(=O)O", "note": "(stereo unspecified)", "values": [{"measurement": "IC50", "setting": "Glutathione reductase [5]", "result": 85, "unit": "µM"}]}, {"smiles": "O=NN(CCCl)C(=O)NCCCl", "note": "[CARMUSTINE]", "values": [{"measurement": "IC50", "setting": "Glutathione reductase [5]", "result": 441, "unit": "µM"}]}]}
